Patent US20190070124A1, “COMPOSITIONS OF CB2 RECEPTOR SELECTIVE AGONISTS FOR TREATMENT OF MENTAL DISORDERS” (priority 2016, published 2019)
“Also recorded” adds a separate entry of the source.

Assays:
[1] = tested on: murine model of schizophrenia; test: Open-field test (ambulation, rearing, grooming) in the PCP mouse model
Method: Mice were assessed for hyperactivity behavior on postnatal day 16 (FIG. 2). Mice were placed in the center of a transparent glass cube cage 30×40 X31 cm divided into squares of 7.5×7.5 cm. The number of squares and rearing activity were counted for 8 min.
Mice were assessed for hyperactivity behavior on postnatal day 64-66. Mice were placed in the center of a transparent glass cube cage 30×40 X31 cm divided into squares of 7.5×7.5 cm. The number of squares and rearing activity were counted for 8 min.

[2] = tested on: murine model of schizophrenia; test: Forced-swimming test in the PCP mouse model; format: in vivo, mice; settings: PND 83; postnatal PCP 5 mg/kg; oral BCP 10 mg/kg twice a week, PND 43-62
Method: (§1) BCP was diluted in canola oil. BCP (10 mg/kg diluted in canola oil) was administered to adolescent mice (PND 43-62) by gavage twice a week (on Sunday and Wednesday) for 3 weeks, a total of 6 gavages. Control group and PCP-induced group received by gavage the oil vehicle.
Training was conducted for 6 min a day before the test. Each mouse was placed into a transparent glass cylinder filled with fresh water at 25° C. On the test day, the total duration/frequency of immobility and climbing was counted every 2 minutes for 6 minutes. An increased immobility is an index of learning and habituation, therefore a positive behavioral adaptation with a stressful condition.

[3] = tested on: murine model of schizophrenia; test: PhenoTyper cage behaviour in the PCP mouse model; format: in vivo, mice; settings: BCP 5 mg/kg PND 43-61
[4] = Body weight in the neonatal PCP mouse model of schizophrenia
[5] = tested on: murine model of schizophrenia; test: Social interaction test in a novel environment, PCP mouse model; format: in vivo, mice; settings: PND 88-89; postnatal PCP 5 mg/kg; oral BCP 10 mg/kg twice a week, PND 43-62
Method: as §1
Each mouse was placed in a novel cage together with a nonaggressive intruder mouse of the same species, same sex and a similar age. The interaction between the two mice was recorded for 10 minutes with EthoVision software (Noldus). Social interaction was defined by contact between the mice (tracking nose point). Reduced duration of contact behavior indicates on impairment in social interaction.

[6] = tested on: murine model of schizophrenia; test: Prepulse inhibition (PPI) of the startle reflex in the PCP mouse model; format: in vivo, mice
Method: In this experimental model, a weak stimulus (74-90 dB tone) inhibited the subsequent response to a strong stimulus (120 dB tone). Reduced prepulse inhibition of the startle reflex (PPI) was taken as an index of the positive symptoms of schizophrenia (Josselyn and Vaccarino, 1998).
PPI was assessed similarly to the method described by Varty et al. In the employed model, mice were placed in a startle chamber and allowed to acclimate for 5 min. A loudspeaker produced a 65 dB background white noise or the various acoustic pre-pulse stimuli (dB): 74, 78, 82, 86, and 90 (20 ms). A 120 dB (40 ms) stimulus was given first to induce a response to startle. The response of the mouse was transduced and stored by a computer. Each test session lasted for 11 min and consisted of 5 presentations of each of the trial types presented in random order and separated by 15 second intervals. The amount of prepulse inhibition was calculated as % PPI=[1−(startle response for prepulse+pulse)/(startle response for pulse alone)]×100.
The % PPI indicates of level of disruption of the sensorimotor gating system in schizophrenia but also serves as an indicator of memory function. The % PPI after administration of PCP and treatment of BCP in the PPI test also serve as an index of memory function, further supporting the function of the sensorimotor system.

[7] = target: CYP2D6 (Homo sapiens, UniProt P10635); test: CYP450 enzymatic metabolism in human liver microsomes
Method: CYP450 dependent activities were determined using a known substrate. […] A known inhibitor, such as quinidine, tested at a single concentration 3.00 μM was included as positive control. Incubation mixture containing human liver microsomes (0.1 mg/mL), substrate (5 μM) and standard inhibitor or test compound were warmed at 37 C for 10 minutes. Reactions were initiated by addition of the NADPH (1 mM) and the mixture was incubated for 20 minutes at 37° C. water bath. The organic solvent in the reaction mixture was DMSO. After incubation, ice cold acetonitrile was added to terminate the reaction. Generation of metabolite from the substrate reactions was determined by LC-MS/MS and assessed based on peak area ratios of analyte/IS. Mean was used to calculate the extent of inhibition (expressed as % of control activity).

[8] = PND 17, BCP 10 mg/kg 1 h after PCP, ethanol-based vehicle
[9] = PND 35-37, postnatal BCP 10 mg/kg 1 h after PCP
[10] = PND 104, postnatal PCP, BCP 5 mg/kg PND 43-61
[11] = PND 91, females and males, postnatal PCP
[12] = PND 68, no PCP, BCP 5 mg/kg PND 43-61
[13] = PND 68, postnatal PCP, BCP 5 mg/kg PND 43-61
[14] = PND 106, postnatal PCP, BCP 5 mg/kg PND 43-61
[15] = age 8 weeks, postnatal BCP 10 mg/kg 1 h after PCP

Chain of CYP2D6 (P10635 whole entry): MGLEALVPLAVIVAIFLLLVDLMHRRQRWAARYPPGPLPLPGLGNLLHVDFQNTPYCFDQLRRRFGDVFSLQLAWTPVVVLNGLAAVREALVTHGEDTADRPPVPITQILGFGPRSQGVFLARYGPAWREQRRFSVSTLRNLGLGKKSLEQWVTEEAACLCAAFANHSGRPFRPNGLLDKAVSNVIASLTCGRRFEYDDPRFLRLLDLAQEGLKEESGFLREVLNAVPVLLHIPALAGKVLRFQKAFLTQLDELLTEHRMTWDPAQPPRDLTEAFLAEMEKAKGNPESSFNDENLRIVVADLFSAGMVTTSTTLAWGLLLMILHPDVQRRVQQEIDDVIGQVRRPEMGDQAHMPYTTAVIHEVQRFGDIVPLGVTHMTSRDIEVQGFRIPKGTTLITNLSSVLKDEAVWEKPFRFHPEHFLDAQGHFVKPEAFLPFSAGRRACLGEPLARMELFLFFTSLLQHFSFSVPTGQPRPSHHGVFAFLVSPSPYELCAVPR

trans-(1R,9S)-8-methylene-4,11,11trimethylbicyclo[7.2.0]undec-4-ene [BCP]
open-field rearing and exploration ([1]; PND 17, male mice, BCP 10 mg/kg 1 h after each PCP 5 mg/kg injection (Cremophor EL:DMSO:saline)): reversed the effects of PCP on rearing and exploration
open-field ambulation and rearing ([1]; PND 17, males, BCP 10 mg/kg 1 h after PCP, DMSO-based carrier): completely reversed the effects of PCP on ambulation
open-field ambulation and rearing, females [1, 8]: reversed a proportion of the effects of PCP on ambulation and rearing behavior of female mice
open-field locomotor activity, males [1, 8]: appeared to be less sensitive to the treatment of PCP or PCP+BCP
open-field rearing and exploration [1, 8]: reversed the effects of PCP on rearing and exploration
open-field locomotor activity (ambulation), males [1, 9]: reduced locomotor activity; also recorded: significantly reversed the effect of PCP in males
open-field rearing and exploration, females [1, 9]: no differences in rearing and exploration behaviors were seen between the different groups
open-field rearing, males [1, 9]: significantly reduced rearing behavior as compared to vehicle and PCP-treated groups
open-field rearing ([1]; PND 63, females and males, postnatal PCP, BCP 5 mg/kg injected twice a week PND 43-61): reversed the effect of PCP on rearing in both females and males
open-field ambulation ([1]; PND 63, male and female, postnatal PCP, BCP 5 mg/kg injected twice a week PND 43-61): significantly reversed the effect of postnatal treatment of PCP on ambulation in male and female mice at PND 63
open-field exploration compared with saline-treated mice ([1]; PND 63, BCP 5 mg/kg injected twice a week PND 43-61): significantly inhibited the exploration of mice compared with saline-treated mice
open-field exploratory behavior, females ([1]; PND 104 (last BCP treatment PND 61), postnatal PCP, BCP 5 mg/kg PND 43-61): relapse in exploratory behavior was evident
self-grooming (total, without stimuli) ([1]; PND 104, females or males, postnatal PCP, BCP 5 mg/kg PND 43-61): did not reverse the effect of PCP on self-grooming; also recorded: did not reverse the effect of PCT on grooming at PND104
open-field rearing (and exploration), males [1, 10]: still significantly higher than that of PCP-treated mice with no BCP treatment; also recorded: improved exploration and rearing behaviors of male PCP treated mice at PND 104
activity in the open field test, female mice ([1]; postnatal PCP 5 mg/kg, BCP 10 mg/kg in canola oil by gavage twice a week, PND 43-62): reversed the effect of 5 mg/kg PCP on activity of female mice in the open field test
duration of immobility in the forced swim test, male mice [2]: reversed the effect of 5 mg/kg PCP on the duration of immobility of male mice in the forced swim test; also recorded: reversed the effect of PCP on mice in the open field test (29A) and in the forced swim test
frequency of entries to the wheel [3, 11]: reversed the effects of PCP on the frequency of entries to the wheel in the Phenotyper cage both in females and males
time spent in the Hidden Zone [3, 11]: reversed the effects of PCP on the time spend in the Hidden Zone of PhenoTyper cage in females and males; also recorded: reversed the effects of PCP on the time spent in the hidden zone
time spent at the drinking zone ([3]; PND 91, compared with PCP-treated group): appeared to reduce the time spend at the drinking zone
frequency of entries to the Hidden Zone, males ([3]; PND 91, postnatal PCP): reversed the effect of PCP in males
time spent in the food zone ([3]; PND 91, postnatal PCP): did not affect the time spend in the food zone
frequency of entries to the Wheel Zone ([3]; PND 105, postnatal PCP): appeared to reduce the effect of PCP on the frequency of entries to the Wheel Zone
frequency of entries to the hidden zone ([3]; PND 105, postnatal PCP): reversed the effects of PCP on the frequency of entries to the hidden zone; also recorded: reversed the effect of PCP on frequency of entries to hidden zone
time spent at the hidden zone ([3]; PND 105, postnatal PCP): reversed the effects of PCP on the time spend at the hidden zone; also recorded: reversed the effect of PCP on time spent at the hidden zone
time spent in the wheel zone ([3]; PND 105, postnatal PCP): showed a trend to reverse the effect of PCP on the time spend in the wheel; also recorded: not the time spent in the wheel zone
body weight at PND 17 ([4]; BCP 10 mg/kg 1 h after PCP, ethanol-based vehicle, PCP+BCP vs PCP): no significant difference between groups treated with PCP with or without BCP
body weight ([4]; BCP 10 mg/kg 1 h after PCP, postnatal, DMSO-based vehicle): completely reversed the effect of PCP on body weight
body weight ([4]; BCP 10 mg/kg injected 1 h after each PCP 5 mg/kg dose, PND 3-16, Cremophor EL:ethanol:saline vehicle, weight PND 3-17): significantly reversed the inhibitory effect of PCP on body weight; also recorded: reversed the reduction in body weight during the first week of life; also recorded: did not restore the weight completely
effect on PCP-induced reduction of body weight, males [4, 8]: appeared to be more prominent
body weight, females [4, 9]: significantly reversed the effect of PCP on female body weight
body weight, males [4, 9]: no significant difference in male body weight between the groups
body weight [4, 10]: did not increase body weight in females and males, rather reduced body weight of PCP+BCP treated group
body weight of adolescent mice ([4]; postnatal PCP, BCP 5 mg/kg injected twice a week PND 43-61 (DMSO:Cremophor EL:saline)): did not affect body weight of adolescent mice
body weight, male mice ([4]; postnatal day 83, oral BCP 10 mg/kg twice a week, PND 43-62): did not affect body weight of male mice at postnatal day 83; also recorded: did not affect their body weight
social interaction, male mice [5]: reversed the effect of 5 mg/kg PCP on social interaction of male mice in the social interaction test
pre-pulse inhibition in saline-treated mice [6, 12]: no substantial effect on saline-treated mice
response to pre-pulse tones in saline-treated mice [6, 12]: no effect on saline-treated mice
response to pre-pulse tones [6, 13]: significantly reversed the effect of PCP on response to pre-pulse tones; also recorded: reversed the effect of PCP on the response to tone
startle response at the end of the PPI test [6, 13]: did not affect the response to startle at the end of the PPI test
startle response, females [6, 13]: significantly reversed the effect of PCP on startle response in females
startle response, males [6, 13]: no difference in the response to the startle stimuli between groups
pre-pulse inhibition (% PPI) ([6]; PND 68, postnatal PCP, BCP 5 mg/kg injected twice a week PND 43-61): significantly reversed the effect of PCP on pre-pulse inhibition; also recorded: reversed the effect of PCP on PPI
% pre-pulse inhibition (PPI) [6, 14]: reversed the effect of PCP on the % pre-pulse inhibition (PPI); also recorded: reversed the effect of PCP on attention at PND106 (PPI test)
response to the startle stimuli (120 dB) [6, 14]: no difference in the response to the startle stimuli (120 dB) between groups
response to tones [6, 14]: reversed the effect of PCP on the response to tones
response to startle stimuli ([6]; age 8 weeks, males and females, postnatal BCP 10 mg/kg 1 h after PCP): not significantly different between groups
% prepulse inhibition, females [6, 15]: No significant difference
% prepulse inhibition, males [6, 15]: reversed this effect; also recorded: significantly reversed the effect of PCP on the sensorimotor-gate in males
risperidone-induced inhibition of CYP2D6 in the presence of BCP ([7]; BCP combined with risperidone at a fixed concentration equivalent to IC50, human liver microsomes): significantly reduced the risperidone-induced inhibition of CYP2D6; also recorded: blocked the effect of risperidone and restored the activity of CYP2D6 enzyme
inhibitory effect on CYP2D6 ([7]; human liver microsomes): 0-20 % inhibition
inhibition of CYP2D6 enzymatic activity ([7]; human liver microsomes 0.1 mg/mL, 20 min, 37 C): slightly inhibited CYP2D6
